In ChEMBL document CHEMBL6096672, “In Silico Enabled Discovery of KAI-11101, a Preclinical DLK Inhibitor for the Treatment of Neurodegenerative Disease and Neuronal Injury” (J Med Chem, 2025):
Converted amounts (≈) assume the structure as drawn. Each block holds one compound with its values, some of them ahead of it.

What was measured:
[1] = Inhibition of GST-tagged DLK (1 to 520 residues)(unknown origin) using MKK4 as substrate preincubated for 60 mins followed by substrate/ATP addition measured after 30 mins by HTRF assay; parameters: species or system Homo sapiens
[2] = Oral bioavailability in mouse at 5 mg/kg; assay type: ADME, organism-based; details: in vivo
[3] = Intrinsic clearance in human liver microsomes; assay type: ADME, Microsome; details: read-out: CLH
[4] = Clearance in mouse at 5 mg/kg, po; assay type: ADME, organism-based; details: in vivo
[5] = Efflux ratio in MDCK-MDR1 cells; assay type: ADME, cell-based, Canis lupus familiaris; details: dog
[6] = Kinetic solubility of compound at pH 6.8; assay type: physicochemical; details: buffer, read-out: Kinetic_solubility
[7] = Intrinsic clearance in mouse liver microsomes; assay type: ADME, Microsome; details: read-out: CLH
[8] = Ratio of unbound drug concentration in brain to plasma of mouse at 5 mg/kg; assay type: ADME, organism-based; details: brain and plasma, read-out: K(p,uu,brain)
[9] = Half life in mouse at 5 mg/kg, po; assay type: ADME, organism-based; details: in vivo
[10] = Apparent permeability across apical to basal side in MDCK-MDR1 cells; assay type: ADME, cell-based, Canis lupus familiaris; details: dog
[11] = Inhibition of human DLK transfected in HEK293-T-REx cells assessed as decrease in JNK phosphorylation incubated for 5 hrs by HTRF assay; assay type: cell-based
CYP3A4 = CYP3A4 (Homo sapiens, UniProt P08684); experiment: Time dependent inhibition of CYP3A4 (unknown origin) at 30 uM incubated for 30 mins relative to control; assay type: ADME; details: read-out: TDI
[12] = target: Voltage-gated inwardly rectifying potassium channel KCNH2 (Homo sapiens, UniProt Q12809); experiment: Inhibition of hERG by patch-clamp method; assay type: toxicity
[13] = Energy of neutralization, pKa of compound; assay type: physicochemical
[14] = Intrinsic clearance in dog liver microsomes; assay type: ADME, Canis lupus familiaris, Microsome; details: read-out: CLH

Voltage-gated inwardly rectifying potassium channel KCNH2, sequence (Q12809 whole entry): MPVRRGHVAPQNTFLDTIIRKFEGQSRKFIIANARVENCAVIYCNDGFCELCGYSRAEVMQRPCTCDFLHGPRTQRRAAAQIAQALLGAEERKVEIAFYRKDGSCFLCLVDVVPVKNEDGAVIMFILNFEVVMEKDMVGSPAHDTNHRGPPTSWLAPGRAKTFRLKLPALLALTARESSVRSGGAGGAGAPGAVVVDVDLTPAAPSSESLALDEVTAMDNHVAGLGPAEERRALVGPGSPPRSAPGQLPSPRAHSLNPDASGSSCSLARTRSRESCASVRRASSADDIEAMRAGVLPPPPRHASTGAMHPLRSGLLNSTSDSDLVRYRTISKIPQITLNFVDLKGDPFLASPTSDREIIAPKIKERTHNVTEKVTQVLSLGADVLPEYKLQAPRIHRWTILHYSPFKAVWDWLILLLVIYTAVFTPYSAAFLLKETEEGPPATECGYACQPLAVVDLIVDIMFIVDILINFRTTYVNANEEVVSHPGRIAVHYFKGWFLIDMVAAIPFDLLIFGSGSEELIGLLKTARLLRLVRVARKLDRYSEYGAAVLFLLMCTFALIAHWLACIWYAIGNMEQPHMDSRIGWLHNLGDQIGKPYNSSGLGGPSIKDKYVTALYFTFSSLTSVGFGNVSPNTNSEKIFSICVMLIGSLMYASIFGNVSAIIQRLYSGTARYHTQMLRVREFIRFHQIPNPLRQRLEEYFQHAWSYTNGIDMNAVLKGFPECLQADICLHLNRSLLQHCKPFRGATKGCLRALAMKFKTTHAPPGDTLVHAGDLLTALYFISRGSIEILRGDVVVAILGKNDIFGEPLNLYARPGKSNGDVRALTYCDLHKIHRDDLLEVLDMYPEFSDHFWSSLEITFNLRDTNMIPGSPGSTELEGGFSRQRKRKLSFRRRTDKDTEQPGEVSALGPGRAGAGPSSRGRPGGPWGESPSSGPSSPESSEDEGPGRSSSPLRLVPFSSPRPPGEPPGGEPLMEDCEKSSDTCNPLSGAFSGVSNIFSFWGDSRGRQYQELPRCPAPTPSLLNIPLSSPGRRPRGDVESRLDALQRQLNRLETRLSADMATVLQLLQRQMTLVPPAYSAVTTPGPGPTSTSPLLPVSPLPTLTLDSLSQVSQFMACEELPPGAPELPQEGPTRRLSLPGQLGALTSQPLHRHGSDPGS
CYP3A4, sequence (P08684 whole entry): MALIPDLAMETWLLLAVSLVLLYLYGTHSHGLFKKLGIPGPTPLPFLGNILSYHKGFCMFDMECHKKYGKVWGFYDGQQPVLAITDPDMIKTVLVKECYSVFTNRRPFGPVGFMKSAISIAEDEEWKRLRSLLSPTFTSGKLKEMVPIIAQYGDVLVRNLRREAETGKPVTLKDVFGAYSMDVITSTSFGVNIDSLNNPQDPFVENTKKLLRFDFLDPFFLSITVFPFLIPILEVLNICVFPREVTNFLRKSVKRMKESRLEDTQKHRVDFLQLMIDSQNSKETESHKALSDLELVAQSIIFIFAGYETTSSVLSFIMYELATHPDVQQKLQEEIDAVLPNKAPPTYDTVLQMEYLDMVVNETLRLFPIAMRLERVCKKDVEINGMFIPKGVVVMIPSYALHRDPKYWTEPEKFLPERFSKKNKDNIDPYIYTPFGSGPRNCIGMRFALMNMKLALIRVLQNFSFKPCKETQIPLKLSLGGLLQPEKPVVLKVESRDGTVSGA

SMILES: Nc1ncc(-c2cc3cn[nH]c3cn2)cc1C(F)(F)F
Ki [1]: 421 nM

SMILES: CCc1nc(-c2cnc(N)c(C(F)(F)F)c2)c2ccc([C@H]3COCCN3C)cn12
bioavailability [2]: 112%
microsomal CLint [3]: 18 µL/min/mg
CL/F [4]: 68 mL/min/kg
efflux ratio [5]: 1
solubility kinetic [6]: 320 µM (≈ 130 µg/mL)
microsomal CLint [7]: 20 µL/min/mg
Kp uu [8]: 0.17
half-life [9]: 36 min
Papp A→B [10]: 16.2 ×10⁻⁶ cm/s

SMILES: CCn1nc(-c2cnc(N)c(OC(F)(F)F)c2)c2ccn([C@@H]3CCOC3)c(=O)c21
microsomal CLint [3]: 22 µL/min/mg
Ki [1]: 7.7 nM
IC50 [11]: 120 nM
microsomal CLint [7]: 33 µL/min/mg

SMILES: Nc1ncc(-c2n[nH]c3ccsc23)cc1C(F)(F)F
Ki [1]: 72.4 nM

SMILES: CCn1nc(-c2cnc(N)c(OC(F)(F)F)c2)c2ccn(C3CCOCC3)c(=O)c21
inhibition at 0.5 h, 30 µM (CYP3A4): 18%
microsomal CLint [3]: 8.8 µL/min/mg
Ki [1]: 2.8 nM
efflux ratio [5]: 1
IC50 [11]: 110 nM
microsomal CLint [7]: 16 µL/min/mg
Kp uu [8]: 0.43
Papp A→B [10]: 7.6 ×10⁻⁶ cm/s

SMILES: CCc1nc(-c2cnc(N)c(C(F)(F)F)c2)c2ccc(CN3CCOCC3)cn12
IC50 [12]: 2500 nM
Ki [1]: 4.6 nM
IC50 [11]: 242 nM
pKa [13]: 6.1

SMILES: Nc1ncc(-c2ncn3ccccc23)cc1C(F)(F)F
Ki [1]: 63 nM

SMILES: Nc1ncc(-c2ncn3cc(C4CCN(C5COC5)CC4)ccc23)cc1C(F)(F)F
Ki [1]: 3.2 nM
solubility kinetic [6]: 6 µM (≈ 2.5 µg/mL)
IC50 [11]: 134 nM

SMILES: Nc1ncc(-c2n[nH]c3cnccc23)cc1C(F)(F)F
Ki [1]: 149 nM

SMILES: CN1CCCC[C@H]1c1ccc2c(-c3cnc(N)c(C(F)(F)F)c3)ncn2c1
IC50 [12]: 1100 nM
Ki [1]: 4.3 nM
solubility kinetic [6]: 73 µM (≈ 27.4 µg/mL)
IC50 [11]: 90 nM
pKa [13]: 8.1

SMILES: CC(C)n1cc(-c2cnc(N)c(C(F)(F)F)c2)c2nc(C3CC3)ccc21
Ki [1]: 27 nM

SMILES: CC(C)c1n[nH]c2cnc(-c3cnc(N)c(C(F)(F)F)c3)cc12
Ki [1]: 79 nM

SMILES: CN1CCC(Cc2ccc3c(-c4cnc(N)c(C(F)(F)F)c4)ncn3c2)CC1
Ki [1]: 4.5 nM
solubility kinetic [6]: 68 µM (≈ 26.5 µg/mL)
IC50 [11]: 405 nM

SMILES: Nc1ncc(-c2nn(C3CC3)c3c(=O)n(C4CCOCC4)ccc23)cc1OC(F)(F)F
microsomal CLint [3]: 13 µL/min/mg
Ki [1]: 3.4 nM
IC50 [11]: 104 nM
microsomal CLint [7]: 17 µL/min/mg
Kp uu [8]: 0.31

SMILES: CN1CCOC[C@H]1c1ccc2c(-c3cnc(N)c(OC(F)(F)F)c3)nc(C(F)(F)F)n2c1
inhibition at 0.5 h, 30 µM (CYP3A4): 33%
Ki [1]: 3.5 nM
IC50 [11]: 300 nM

SMILES: Nc1ncc(-c2cn(C3CCC3)c3cccnc23)cc1C(F)(F)F
Ki [1]: 194 nM

Further lines, with some results ahead:

Ki [1]: 0.65 nM
IC50 [11]: 35 nM
SMILES: CCn1nc(-c2cnc(N)c(OC(F)F)c2)c2ccn([C@H]3CCOC[C@H]3OC3CCC3)c(=O)c21

microsomal CLint [3]: < 3 µL/min/mg
Ki [1]: 2.5 nM
IC50 [11]: 130 nM
microsomal CLint [7]: 4 µL/min/mg
Kp uu [8]: 0.38
SMILES: CCn1nc(-c2cnc(N)c(OC(F)(F)F)c2)c2ccn(C3CCN(C)CC3)c(=O)c21

microsomal CLint [3]: 12 µL/min/mg
microsomal CLint [14]: 21 µL/min/mg
Ki [1]: 1.3 nM
IC50 [11]: 95 nM
microsomal CLint [7]: 21 µL/min/mg
Kp uu [8]: 0.22
SMILES: CCn1nc(-c2cnc(N)c(OC(F)(F)F)c2)c2ccn([C@H]3CCOC[C@H]3OC3CC3)c(=O)c21

Ki [1]: 0.92 nM
IC50 [11]: 46 nM
Kp uu [8]: 0.5
SMILES: CCn1nc(-c2cnc(N)c(OC(F)F)c2)c2ccn([C@H]3CCOC[C@H]3OC(F)(F)F)c(=O)c21

Ki [1]: 0.6 nM
IC50 [11]: 40 nM
pKa [13]: 8.4
SMILES: CCc1nc(-c2cnc(N)c(C(F)(F)F)c2)c2ccc(C3(F)CCN(C)CC3)cn12
IC50 [12]: 600 nM

inhibition at 0.5 h, 30 µM (CYP3A4): 62%
Ki [1]: 0.47 nM
IC50 [11]: 29 nM
SMILES: CCc1nc(-c2cnc(N)c(OC(F)(F)F)c2)c2ccc([C@@]3(C)COCCN3C)cn12

Ki [1]: 1.5 nM
solubility kinetic [6]: 80 µM (≈ 30 µg/mL)
IC50 [11]: 128 nM
SMILES: CN1CCC(c2ccc3c(-c4cnc(N)c(C(F)(F)F)c4)ncn3c2)CC1

Ki [1]: 1 nM
SMILES: CCc1nc(-c2cnc(N)c(C(F)(F)F)c2)c2ccc(C3COC3)cn12

inhibition at 0.5 h, 30 µM (CYP3A4): 65%
Ki [1]: 0.26 nM
IC50 [11]: 33 nM
SMILES: CCc1nc(-c2cnc(N)c(OC(F)(F)F)c2)c2ccc([C@H]3COCC(=O)N3C)cn12

Ki [1]: 2.1 nM
solubility kinetic [6]: 76 µM (≈ 33.7 µg/mL)
IC50 [11]: 94 nM
SMILES: CN1CCC(c2ccc3c(-c4cnc(N)c(C(F)(F)F)c4)nc(C(F)(F)F)n3c2)CC1

microsomal CLint [3]: 41 µL/min/mg
microsomal CLint [14]: 21 µL/min/mg
Ki [1]: 1.1 nM
IC50 [11]: 130 nM
microsomal CLint [7]: 66 µL/min/mg
SMILES: CCn1nc(-c2cnc(N)c(OC(F)(F)F)c2)c2ccn([C@H]3CCN(C)C[C@H]3OC(F)(F)F)c(=O)c21
